Our source for the Ki values is patent publication US20020099073A1, “Modulators of protein tyrosine phosphatases (PTPases)” (priority 2000, published 2002).

The target of this assay is T1, truncated form of PTP1B (corresponding to the first 321 amino acids) (Homo sapiens, UniProt P18031).
T1 construct: truncated form of PTP1B (corresponding to the first 321 amino acids); made in house; host or cells: E. coli
T1 sequence (P18031 1-321): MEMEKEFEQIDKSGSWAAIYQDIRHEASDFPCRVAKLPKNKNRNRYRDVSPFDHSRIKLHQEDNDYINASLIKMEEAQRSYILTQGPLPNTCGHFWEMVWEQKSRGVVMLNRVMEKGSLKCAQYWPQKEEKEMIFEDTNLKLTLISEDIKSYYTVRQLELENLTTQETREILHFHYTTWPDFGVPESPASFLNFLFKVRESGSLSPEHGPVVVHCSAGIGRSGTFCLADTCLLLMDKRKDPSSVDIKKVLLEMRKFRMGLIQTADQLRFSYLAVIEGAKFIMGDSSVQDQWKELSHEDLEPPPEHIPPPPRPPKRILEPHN
In words: Inhibition of PTP1B, p-nitrophenyl phosphate substrate. The class given is biochemical. To be noted: substrate p-nitrophenyl phosphate 0.16 to 10 mM; 100 mM sodium acetate pH 5.5; 25° C. for 60 minutes; absorbance at 405 nm. As for the experimental part: The compounds are evaluated for biological activity with a truncated form of PTP1B (corresponding to the first 321 amino acids), which was expressed in E. coli and purified to apparent homogeneity using published procedures well-known to those skilled in the art. The enzyme reactions are carried out using standard conditions essentially as described by Burke et al. (Biochemistry 35; 15989-15996 (1996)). The assay conditions are as follows. Appropriate concentrations of the compounds of the invention are added to the reaction mixtures containing different concentrations of the substrate, p-nitrophenyl phosphate (range: 0.16 to 10 mM—final assay concentration). The buffer used was 100 mM sodium acetate pH 5.5, 50 mM sodium chloride, 0.1% (w/v) bovine serum albumin and 5 mM dithiothreitol (total volume […]). The reaction was started by addition of the enzyme and carried out in microtiter plates at 25° C. for 60 minutes. The reactions are stopped by addition of NaOH. The enzyme activity was determined by measurement of the absorbance at 405 nm with appropriate corrections for absorbance at 405 nm of the compounds and p-nitrophenyl phosphate. The data are analyzed using nonlinear regression fit to classical Michaelis Menten enzyme kinetic models. Inhibition is expressed as Ki values in μM.

Usually Ki stands for the equilibrium dissociation constant of an inhibitor or competing ligand from its target. Read a high Ki as a looser hold on the target. Regarding `CC(=O)Nc1ccc(S(=O)(=O)NC[C@@H]2Cc3c(sc(NC(=O)C(=O)O)c3C(=O)O)CN2)cc1` [Example 29, 5-(S)-((4-Acetylamino-benzenesulfonylamino)methyl)-2-(oxalyl-amino)-4,5,6,7-tetrahydro-thieno[2,3-c]pyridine-3-carboxylic Acid], affinity was put at a Ki of 130 nM. That is a sub-micromolar value.
`O=C(O)C(=O)Nc1sc2c(c1C(=O)O)CC(CNC(=O)c1ccc(NC(=O)c3ccccc3)cc1)NC2` (centres unmarked) [Example 5, 5-((4-Benzoylamino-benzoylamino)methyl)-2-(oxalyl-amino)-4,5,6,7-tetrahydro-thieno[2,3-c]pyridine-3-carboxylic Acid] gave an inhibitory constant (Ki) of 250 nM.
In the case of `COc1ccc(CN2Cc3sc(NC(=O)C(=O)O)c(C(=O)O)c3CC2CNC(=O)c2cccc3ccccc23)cc1` (centres unmarked) [Example 16, 6-(4-Methoxybenzyl)-5-(((naphthalene-1-carbonyl)amino)methyl)-2-(oxalyl-amino)-4,5,6,7-tetrahydro-thieno[2,3-c]pyridine-3-carboxylic Acid], the Ki worked out at 20000 nM.
For `O=C(O)C(=O)Nc1sc2c(c1C(=O)O)C[C@H](CNC(=O)c1ccc(NC(=O)c3ccccc3)cc1)NC2` [Example 22, 5-(R)-((4-Benzoylamino-benzoylamino)methyl)-2-(oxalyl-amino)-4,5,6,7-tetrahydro-thieno[2,3-c]pyridine-3-carboxylic Acid] the value was 3200 nM.
For the compound “5-(Benzyloxycarbonylamino-methyl)-2-(oxalyl-amino)-4,5,6,7-tetrahydro-thieno[2,3-c]pyridine-3-carboxylic acid and 7-(benzyloxycarbonylamino-methyl)-2-(oxalyl-amino)-4,5,6,7-tetrahydro-thieno[2,3-c]pyridine-3-carboxylic Acid [Example 17]”, the Ki is 1500 nM.
To `CCOc1ccc(C(=O)NCC2Cc3c(sc(NC(=O)C(=O)O)c3C(=O)O)CN2)c(O)c1` (centres unmarked) [Example 10, 5-((4-Ethoxy-2-hydroxy-benzoylamino)methyl)-2-(oxalyl-amino)-4,5,6,7-tetrahydro-thieno[2,3-c]pyridine-3-carboxylic Acid] belongs 340 nM.
For `COc1ccc(CN2Cc3sc(NC(=O)C(=O)O)c(C(=O)O)c3CC2CNC(=O)c2ccc(NC(=O)c3ccccc3)cc2)cc1` (centres unmarked) [Example 4], affinity was put at a Ki of 3000 nM.
To `O=C(O)C(=O)Nc1sc2c(c1C(=O)O)CC(CNC(=O)c1ccccc1)NC2` (centres unmarked) [Example 1, 5-(Benzoylamino-methyl)-2-(oxalyl-amino)-4,5,6,7-tetrahydro-thieno[2,3-c]Pyridine-3-carboxylic Acid] belongs 520 nM; to `COc1ccc(CN2Cc3sc(NC(=O)C(=O)O)c(C(=O)O)c3CC2CNC(=O)c2cc3cc(OCc4ccccc4)ccc3[nH]2)cc1` (centres unmarked) [Example 3, 5-(((5-Benzyloxy-1H-indole-2-carbonyl)amino)methyl)-6-(4-methoxy-benzyl)-2-(oxalyl-amino)-4,5,6,7-tetrahydro-thieno[2,3-c]pyridine-3-carboxylic Acid], 4300 nM.
`O=C(O)C(=O)Nc1sc2c(c1C(=O)O)C[C@@H](CNC(=O)c1ccc(NC(=O)c3ccccc3)cc1)NC2` [Example 21, 5-((4-Benzoylamino-benzoylamino)methyl)-2-(oxalyl-amino)-4,5,6,7-tetrahydro-thieno[2,3-c]pyridine-3-carboxylic Acid] gave a Ki of 160 nM.
Regarding `CC(=O)Nc1ccc(S(=O)(=O)NC[C@H]2Cc3c(sc(NC(=O)C(=O)O)c3C(=O)O)CN2)cc1` [Example 28, 5-(R)-((4-Acetylamino-benzenesulfonylamino)methyl)-2-(oxalyl-amino)-4,5,6,7-tetrahydro-thieno[2,3-c]pyridine-3-carboxylic Acid], the affinity corresponds to a Ki of 3500 nM.
For `O=C(NC[C@@H]1Cc2c(sc(NC(=O)C(=O)O)c2C(=O)O)CN1)Nc1ccc(Oc2ccccc2)cc1` [Example 27, 2-(Oxalyl-amino)-5-(S)-(3-(4-phenoxy-phenyl)ureidomethyl)-4,5,6,7-tetrahydro-thieno[2,3-c]pyridin-3-carboxylic Acid], affinity was put at a Ki of 200 nM.
Turning to `O=C(O)C(=O)Nc1sc2c(c1C(=O)O)CC(CNC(=O)c1ccc(-c3ccccc3)cc1)NC2` (centres unmarked) [Example 9, 5-(((Biphenyl-4-carbonyl)amino)methyl)-2-(oxalyl-amino)-4,5,6,7-tetrahydro-thieno[2,3-c]pyridine-3-carboxylic Acid], the inhibitory constant (Ki) stood at 220 nM.
Consider `O=C(O)C(=O)Nc1sc2c(c1C(=O)O)C[C@@H](CNC(=O)c1cc3ccccc3cc1O)NC2` [Example 24, 5-(S)-(((3-Hydroxy-naphthalene-2-carbonyl)amino)methyl)-2-(oxalyl-amino) 4,5,6,7-tetrahydro-thieno[2,3-c]pyridine-3-carboxylic Acid], for which the inhibition constant Ki stood at 220 nM. In other words, the sub-micromolar range.
`COc1ccc(CN2Cc3sc(NC(=O)C(=O)O)c(C(=O)O)c3CC2CNC(=O)c2cc(-c3ccc(C)cc3)nc3ccc(Br)cc23)cc1` (centres unmarked) [Example 2, 5-(((6-Bromo-2-p-tolyl-quinoline-4-carbonyl)amino)methyl)-6-(4-methoxy-benzyl)-2-(oxalyl-amino)-4,5,6,7-tetrahydro-thieno[2,3-c]pyridine-3-carboxylic Acid] displayed an inhibition constant (Ki) of 100000 nM. Against the preceding compound, the Ki is about 450-fold higher.
Compound `O=C(O)C(=O)Nc1sc2c(c1C(=O)O)C[C@@H](CNC(=O)c1cccc(Oc3ccccc3)c1)NC2` [Example 20, 2-(Oxalyl-amino)-5-(S)-((3-phenoxy-benzoylamino)methyl)-4,5,6,7-tetrahydro-thieno[2,3-c]pyridine-3-carboxylic Acid] had a Ki of 270 nM. This Ki is about 370-fold lower than that of the compound before.
On to `O=C(O)C(=O)Nc1sc2c(c1C(=O)O)C[C@@H](CNC(=O)c1ccc3ccccc3c1O)NC2` [Example 23, 5-(S)-(((1-Hydroxy-naphthalene-2-carbonyl)amino)methyl)-2-(oxalyl-amino)-4,5,6,7-tetrahydro-thieno[2,3-c]pyridine-3-carboxylic Acid], for which the Ki was 150 nM.
Regarding `COc1ccc(CN2Cc3sc(NC(=O)C(=O)O)c(C(=O)O)c3CC2CNC(=O)c2nn(-c3ccccc3)nc2C)cc1` (centres unmarked) [Example 6, 6-(4-Methoxy-benzyl)-5-(((5-methyl-2-phenyl-2H-[1,2,3]triazole-4-carbonyl)-amino)methyl)-2-(oxalyl-amino)-4,5,6,7-tetrahydro-thieno[2,3-c]pyridine-3-carboxylic Acid], the inhibition constant Ki was 20000 nM.
Turning to `COc1ccc2cc(O)c(C(=O)NC[C@@H]3Cc4c(sc(NC(=O)C(=O)O)c4C(=O)O)CN3)cc2c1` [Example 25, 5-(S)-(((3-Hydroxy-7-methoxy-naphthalene-2-carbonyl)amino)methyl)-2-(oxalyl-amino)-4,5,6,7-tetrahydro-thieno[2,3-c]pyridine-3-carboxylic Acid], affinity was put at a Ki of 210 nM. Compared with the last compound, the Ki is about 95-fold lower.
In turn, `O=C(O)C(=O)Nc1sc2c(c1C(=O)O)CC(CNC(=O)c1cccc(O)c1)NC2` (centres unmarked) [Example 19, 5-((3-Hydroxy-benzoylamino)methyl)-2-(oxalyl-amino)-4,5,6,7-tetrahydro-thieno[2,3-c]Pyridine-3-carboxylic Acid] showed a Ki of 950 nM.
`O=C(O)C(=O)Nc1sc2c(c1C(=O)O)CC(CNC(=O)c1ccccc1O)NC2` (centres unmarked) [Example 18, 5-((2-Hydroxy-benzoylamino)-methyl)-2-(oxalyl-amino)-4,5,6,7-tetrahydro-thieno[2,3-c]pyridine-3-carboxylic Acid] showed an inhibition constant Ki of 680 nM.
With `O=C(O)C(=O)Nc1sc2c(c1C(=O)O)CC(CNC(=O)c1cc3ccccc3[nH]1)NC2` (centres unmarked) [Example 14], the affinity corresponds to a Ki of 670 nM. This Ki and that of the compound before are within 1.5-fold of each other.
In the case of `Cc1nn(-c2ccccc2)nc1C(=O)NCC1Cc2c(sc(NC(=O)C(=O)O)c2C(=O)O)CN1` (centres unmarked) [Example 11, 5-(((5-Methyl-2-phenyl-2H-[1,2,3]triazole-4-carbonyl)amino]methyl)-2-(oxalyl-amino)-4,5,6,7-tetrahydro-thieno[2,3-c]pyridin-3-carboxylic Acid], the affinity corresponds to a Ki of 1500 nM.
